{"source": "paper PMC9781652", "about": "“Dinuclear Iron Complexes of Iminopyridine-Based Ligands as Selective Cytotoxins for Tumor Cells and Inhibitors of Cancer Cell Migration” (Pharmaceutics, 2022)", "key": {"[1]": {"test_system": "CCD-18Co human colon fibroblasts", "experiment": "Cell proliferation assay (MTT), non-tumor CCD-18Co", "assay_type": "cell-based", "conditions": "non-tumor cells, 72 h exposure, mean ± SE", "procedure": "(§1) Cells were seeded into 96-well plates at densities of 1500 cells per well for OVCAR-8, 1900 for NCI-H460, and 4000 for CCD-18Co. After 24 h of incubation, they were treated for 72 h with different concentrations of the compounds (concentration range: 0.01 to 6 μM for OVCAR-8; 0.05 to 2 μM for NCI-H460; and 0.07 to 70 μM for CCD-18Co cells). When indicated, cells were also incubated with 30 µM of the ROS scavenger Manganese (III) 5,10,15,20-tetrakis (4-benzoic acid) porphyrin (MnTBAP) (Calbiochem, San Diego, CA, USA). Cell viability was measured using the MTT assay as previously described. The IC50 value corresponds to the concentration of the assayed compound that is required to inhibit the cell proliferation by 50%, and was calculated by linear interpolation from the obtained growth curves. All data are reported as the mean ± standard error (SE) calculated from at least three independent experiments with three replicates in each."}, "[2]": {"test_system": "OVCAR-8 human ovarian carcinoma cells", "experiment": "Cell proliferation assay (MTT), OVCAR-8", "assay_type": "cell-based", "conditions": "for IC50: 72 h exposure, MTT, mean ± SE; for SI OVCAR-8 (selectivity index): ratio IC50 CCD-18Co / IC50 OVCAR-8", "procedure": "as §1"}, "[3]": {"test_system": "NCI-H460 human lung carcinoma cells", "experiment": "Cell proliferation assay (MTT), NCI-H460", "assay_type": "cell-based", "conditions": "for IC50: 72 h exposure, MTT, mean ± SE; for SI NCI-H460 (selectivity index): ratio IC50 CCD-18Co / IC50 NCI-H460", "procedure": "as §1"}, "supercoiled pUC18 DNA": {"test_system": "supercoiled pUC18 DNA", "experiment": "DNA interaction analysis by agarose gel electrophoresis", "assay_type": "biochemical", "conditions": "24 h, 37 °C", "procedure": "The interaction of DNA with the compounds was monitored in an agarose gel electrophoresis as previously described. […] Two other samples were included in the assays: a sample of pUC18 DNA alone as negative control and a sample of pUC18 DNA with 5 µg/mL cisplatin for comparison purposes. […] Gels were stained with ethidium bromide (1 µg/mL in TBE) for 15 min and DNA bands were visualized under UV light."}}, "data": [{"smiles": "N.N.O=C([O-])C1(C(=O)[O-])CCC1.[Pt+2]", "note": "[Carboplatin, carboplatin, reference compound]", "values": [{"measurement": "IC50", "setting": "[1]", "result": "240 ± 25.2", "unit": "µM"}, {"measurement": "IC50", "setting": "[2]", "result": "110 ± 4.2", "unit": "µM"}, {"measurement": "SI OVCAR-8 (selectivity index)", "setting": "[2]", "result": 2.1}, {"measurement": "IC50", "setting": "[3]", "result": "12.8 ± 2.23", "unit": "µM"}, {"measurement": "SI NCI-H460 (selectivity index)", "setting": "[3]", "result": 18.8}]}, {"smiles": "N.N.[Cl][Pt][Cl]", "note": "[Cisplatin, cisplatin, reference compound]", "values": [{"measurement": "Interaction with pUC18 DNA in the absence of H2O2", "setting": "supercoiled pUC18 DNA; 25-100 µM compounds (cisplatin 5 µg/mL), no H2O2", "result": "migration of the CCC form decreases until it co-migrates with the OC form"}, {"measurement": "IC50", "setting": "[1]", "result": "31.2 ± 5.76", "unit": "µM"}, {"measurement": "IC50", "setting": "[2]", "result": "6.91 ± 1.21", "unit": "µM"}, {"measurement": "SI OVCAR-8 (selectivity index)", "setting": "[2]", "result": 4.5}, {"measurement": "IC50", "setting": "[3]", "result": "1.01 ± 0.14", "unit": "µM"}]}, {"smiles": "CC#N.CC#N.CC#N.CC#N.Cc1cc(N=Cc2ccccn2)c2c(c1)C1CC(O2)Oc2c(N=Cc3ccccn3)cc(C)cc21.Cc1cc(N=Cc2ccccn2)c2c(c1)C1CC(O2)Oc2c(N=Cc3ccccn3)cc(C)cc21.F[B-](F)(F)F.F[B-](F)(F)F.F[B-](F)(F)F.F[B-](F)(F)F.[Fe+2].[Fe+2]", "note": "[Compound 7, [Fe21_2(CH3CN)4](BF4)4]", "values": [{"measurement": "IC50", "setting": "[1]", "result": "7.78 ± 5.67", "unit": "µM"}, {"measurement": "IC50", "setting": "[2]", "result": "1.39 ± 0.14", "unit": "µM"}, {"measurement": "SI OVCAR-8 (selectivity index)", "setting": "[2]", "result": 5.6}, {"measurement": "IC50", "setting": "[3]", "result": "0.43 ± 0.03", "unit": "µM"}, {"measurement": "SI NCI-H460 (selectivity index)", "setting": "[3]", "result": 18.1}]}, {"smiles": "CC#N.CC#N.CC#N.CC#N.Cc1cc(N=Cc2cccc(Br)n2)c2c(c1)C1CC(O2)Oc2c(N=Cc3cccc(Br)n3)cc(C)cc21.Cc1cc(N=Cc2cccc(Br)n2)c2c(c1)C1CC(O2)Oc2c(N=Cc3cccc(Br)n3)cc(C)cc21.F[B-](F)(F)F.F[B-](F)(F)F.F[B-](F)(F)F.F[B-](F)(F)F.[Fe+2].[Fe+2]", "note": "[Compound 8, [Fe22_2(CH3CN)4](BF4)4]", "values": [{"measurement": "Effect on pUC18 DNA in the presence of H2O2 at the highest concentrations", "setting": "supercoiled pUC18 DNA; highest concentrations, with H2O2", "result": "total DNA degradation"}, {"measurement": "IC50", "setting": "[1]", "result": "7 ± 3.43", "unit": "µM"}, {"measurement": "IC50", "setting": "[2]", "result": "1.27 ± 0.39", "unit": "µM"}, {"measurement": "SI OVCAR-8 (selectivity index)", "setting": "[2]", "result": 5.5}, {"measurement": "IC50", "setting": "[3]", "result": "0.48 ± 0.13", "unit": "µM"}, {"measurement": "SI NCI-H460 (selectivity index)", "setting": "[3]", "result": 14.6}]}]}
